In assay [1] the target is Delta-type opioid receptor (Homo sapiens) (UniProt P41143). The settings on record: Compound concentration 10.0 uM.
The target in assay [2] is 5-hydroxytryptamine receptor 1B (Homo sapiens) (UniProt P28222). To be noted: Compound concentration 10.0 uM.
Assay [3] concerns the target Sodium-dependent noradrenaline transporter (Homo sapiens) (UniProt P23975). The settings on record: Compound concentration 10.0 uM.
The target in assay [4] is Alpha-2A adrenergic receptor (Homo sapiens) (UniProt P08913). To be noted: Compound concentration 10.0 uM.
For assay [5], the target named is D(1B) dopamine receptor (Homo sapiens) (UniProt P21918). The settings on record: Compound concentration 10.0 uM.
In assay [6] the target is Purinergic P2Y (Rattus norvegicus) (UniProt O35811+Q9EPX4+P49651+Q63371+P41232+O35881+Q6GUG4). The settings on record: Compound concentration 10.0 uM.
In assay [7] the target is Glutamate receptor ionotropic, kainate (Rattus norvegicus) (UniProt P22756+Q01812+P42260+P42264+Q63273). The assay is described as follows: Inhibition of Glutamate, Kainate at 10 µM in the Eurofins-Panlabs radioligand binding assay (Eurofins_assay_232700). To be noted: Compound concentration 10.0 uM.
Assay [8] concerns the target D(2) dopamine receptor (Homo sapiens) (UniProt P14416). To be noted: Compound concentration 10.0 uM.
The target of assay [9] is T1, Alpha-2C adrenergic receptor (Homo sapiens) (UniProt P18825).
T1 sequence (whole entry): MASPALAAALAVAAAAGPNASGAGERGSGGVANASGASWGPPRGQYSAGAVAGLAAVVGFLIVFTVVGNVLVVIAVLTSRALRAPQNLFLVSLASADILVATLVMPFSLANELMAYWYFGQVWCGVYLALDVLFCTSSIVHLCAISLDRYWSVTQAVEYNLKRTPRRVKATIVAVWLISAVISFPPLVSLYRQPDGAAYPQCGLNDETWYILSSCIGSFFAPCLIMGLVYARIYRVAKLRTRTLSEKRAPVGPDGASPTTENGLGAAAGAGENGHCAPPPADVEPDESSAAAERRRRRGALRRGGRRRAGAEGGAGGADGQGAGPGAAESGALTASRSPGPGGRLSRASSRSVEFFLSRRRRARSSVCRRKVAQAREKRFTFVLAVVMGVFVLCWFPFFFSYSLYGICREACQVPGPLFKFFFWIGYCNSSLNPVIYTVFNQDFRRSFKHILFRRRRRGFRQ
To be noted: Compound concentration 10.0 uM.

The target in assay [10] is Adenosine receptor A3 (Homo sapiens) (UniProt P0DMS8). The settings on record: Compound concentration 10.0 uM.
The target of assay [11] is Beta-1 adrenergic receptor (Homo sapiens) (UniProt P08588). To be noted: Compound concentration 10.0 uM.
The target in assay [12] is B1 bradykinin receptor (Homo sapiens) (UniProt P46663). The assay is described as follows: Inhibition of Bradykinin B1 at 10 µM in the Eurofins-Panlabs radioligand binding assay (Eurofins_assay_212510). The settings on record: Compound concentration 10.0 uM.
Assay [13] deals with Short transient receptor potential channel 3 (Homo sapiens, UniProt Q13507). As to the kind of experiment: TRP selectivity screen (TRPC3).
For assay [14], the target named is 5-hydroxytryptamine receptor 2B (Homo sapiens) (UniProt P41595). The settings on record: Compound concentration 10.0 uM.
For assay [15], the target named is Voltage-dependent T-type calcium channel subunit alpha-1H (Homo sapiens, UniProt O95180). The assay is described as follows: Selectivity screen (CACNA1H).
The target in assay [16] is GABA-A receptor; anion channel (Rattus norvegicus) (UniProt O09028+P15431+P18506+P18508+P19969+P20236+P23574+P23576+P28471+P28473+P30191+P62813+P63079+P63138+Q91ZM7+Q9ES14). The settings on record: Compound concentration 10.0 uM.
The target of assay [17] is Type-2 angiotensin II receptor (Homo sapiens) (UniProt P50052). The settings on record: Compound concentration 10.0 uM.
In assay [18] the target is Mu-type opioid receptor (Homo sapiens) (UniProt P35372). To be noted: Compound concentration 10.0 uM.
Assay [19] deals with Muscarinic acetylcholine receptor M3 (Homo sapiens) (UniProt P20309). To be noted: Compound concentration 10.0 uM.
Assay [20] has as its target T2, Muscarinic acetylcholine receptor M1 (Homo sapiens) (UniProt P11229).
T2 sequence (whole entry): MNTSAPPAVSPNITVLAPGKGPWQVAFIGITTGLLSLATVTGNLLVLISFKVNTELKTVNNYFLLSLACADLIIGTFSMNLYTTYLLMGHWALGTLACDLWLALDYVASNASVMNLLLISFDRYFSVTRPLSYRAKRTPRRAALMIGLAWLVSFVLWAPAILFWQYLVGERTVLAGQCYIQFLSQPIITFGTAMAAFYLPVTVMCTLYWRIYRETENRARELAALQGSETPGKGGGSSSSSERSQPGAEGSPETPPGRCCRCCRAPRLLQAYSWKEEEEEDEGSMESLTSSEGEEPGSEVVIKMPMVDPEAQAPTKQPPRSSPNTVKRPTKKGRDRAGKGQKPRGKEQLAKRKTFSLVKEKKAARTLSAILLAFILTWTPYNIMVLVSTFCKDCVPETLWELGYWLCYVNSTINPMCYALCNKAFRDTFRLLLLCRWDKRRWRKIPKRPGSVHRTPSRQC
The settings on record: Compound concentration 10.0 uM.

Assay [21] concerns the target Potassium channel subfamily K member 9 (Homo sapiens, UniProt Q9NPC2). The assay is described as follows: Selectivity screen (KCNK9).
Assay [22] concerns the target Histamine H1 receptor (Homo sapiens) (UniProt P35367). The settings on record: Compound concentration 10.0 uM.
Assay [23] deals with T3, Sodium-dependent dopamine transporter (Homo sapiens, UniProt Q01959). The assay is described as follows: GPCRScan assay: inhibition of DAT. On the set-up: radioligand conc. used [nm] 3.6 – 16.0, parental cells stable HEK.
The target in assay [24] is Transient receptor potential cation channel subfamily A member 1 (Homo sapiens, UniProt O75762). As to the kind of experiment: Ephys (human TRPA1).
In assay [25] the target is T3, Sodium-dependent dopamine transporter. The settings on record: Compound concentration 10.0 uM.
In assay [26] the target is ANK_REP_REGION domain-containing protein (Cavia porcellus, UniProt H0VJD1). As to the kind of experiment: FLIPR Ca2+ assay (guinea pig TRPA1).
The target of assay [27] is Alpha-2B adrenergic receptor (Homo sapiens) (UniProt P18089). The settings on record: Compound concentration 10.0 uM.
Assay [28] concerns the target Beta-3 adrenergic receptor (Homo sapiens) (UniProt P13945). The settings on record: Compound concentration 10.0 uM.
Assay [29] has as its target T4, Histamine H2 receptor (Homo sapiens, UniProt P25021). To be noted: Compound concentration 10.0 uM.
The target in assay [30] is T4, Histamine H2 receptor. As to the kind of experiment: GPCRScan assay: inhibition of H2. Further details: radioligand conc. used [nm] 0.02 – 0.05, parental cells Stable HEK.
Assay [31] addresses 5-hydroxytryptamine receptor 2B (Homo sapiens) (UniProt P41595). The settings on record: Compound concentration 10.0 uM. The source holds these as a separate data set.

Calls of active or inactive are those of the source. The calls are words filed in the database; no cut-off is given here.

T3 sequence (Q01959 whole entry): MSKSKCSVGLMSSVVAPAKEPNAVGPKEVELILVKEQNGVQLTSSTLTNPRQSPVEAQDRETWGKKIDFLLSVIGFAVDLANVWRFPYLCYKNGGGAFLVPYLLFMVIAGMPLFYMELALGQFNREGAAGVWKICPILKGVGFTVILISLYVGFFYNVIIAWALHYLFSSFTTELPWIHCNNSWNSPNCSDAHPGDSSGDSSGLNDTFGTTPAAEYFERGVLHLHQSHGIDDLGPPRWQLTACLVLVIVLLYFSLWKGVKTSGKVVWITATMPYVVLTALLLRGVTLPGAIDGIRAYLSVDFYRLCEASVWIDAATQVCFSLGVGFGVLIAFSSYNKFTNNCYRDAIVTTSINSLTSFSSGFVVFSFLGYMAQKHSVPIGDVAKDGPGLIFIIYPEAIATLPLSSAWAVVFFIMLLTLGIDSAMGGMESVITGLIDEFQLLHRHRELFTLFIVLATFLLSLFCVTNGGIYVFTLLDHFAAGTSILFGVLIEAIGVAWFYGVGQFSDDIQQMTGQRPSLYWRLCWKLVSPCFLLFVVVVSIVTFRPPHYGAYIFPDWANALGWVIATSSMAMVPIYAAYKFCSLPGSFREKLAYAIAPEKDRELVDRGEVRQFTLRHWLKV
Sequence of 5-hydroxytryptamine receptor 2B (Homo sapiens) (P41595 whole entry): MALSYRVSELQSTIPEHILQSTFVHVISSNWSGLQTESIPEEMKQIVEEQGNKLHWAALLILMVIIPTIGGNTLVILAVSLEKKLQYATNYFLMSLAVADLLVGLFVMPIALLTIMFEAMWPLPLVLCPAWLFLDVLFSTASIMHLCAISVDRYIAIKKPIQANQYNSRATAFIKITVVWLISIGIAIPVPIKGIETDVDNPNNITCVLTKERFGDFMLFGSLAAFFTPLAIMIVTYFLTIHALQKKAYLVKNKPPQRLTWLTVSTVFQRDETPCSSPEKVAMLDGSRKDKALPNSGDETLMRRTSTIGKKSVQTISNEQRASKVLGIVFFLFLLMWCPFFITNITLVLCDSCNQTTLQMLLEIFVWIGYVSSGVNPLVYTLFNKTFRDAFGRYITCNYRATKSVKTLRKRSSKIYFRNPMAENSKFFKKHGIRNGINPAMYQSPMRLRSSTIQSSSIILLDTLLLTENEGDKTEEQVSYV
T4 sequence (P25021 whole entry): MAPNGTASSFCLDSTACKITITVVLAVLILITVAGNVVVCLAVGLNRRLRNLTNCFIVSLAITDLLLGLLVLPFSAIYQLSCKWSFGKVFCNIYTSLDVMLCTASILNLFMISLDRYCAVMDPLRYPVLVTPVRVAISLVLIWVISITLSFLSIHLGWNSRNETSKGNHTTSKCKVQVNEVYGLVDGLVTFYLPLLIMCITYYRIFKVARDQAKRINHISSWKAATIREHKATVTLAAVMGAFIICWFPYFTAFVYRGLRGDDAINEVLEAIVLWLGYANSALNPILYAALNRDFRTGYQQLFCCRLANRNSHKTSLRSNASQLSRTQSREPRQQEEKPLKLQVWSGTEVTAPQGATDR
Sequence of D(2) dopamine receptor (Homo sapiens) (P14416 whole entry): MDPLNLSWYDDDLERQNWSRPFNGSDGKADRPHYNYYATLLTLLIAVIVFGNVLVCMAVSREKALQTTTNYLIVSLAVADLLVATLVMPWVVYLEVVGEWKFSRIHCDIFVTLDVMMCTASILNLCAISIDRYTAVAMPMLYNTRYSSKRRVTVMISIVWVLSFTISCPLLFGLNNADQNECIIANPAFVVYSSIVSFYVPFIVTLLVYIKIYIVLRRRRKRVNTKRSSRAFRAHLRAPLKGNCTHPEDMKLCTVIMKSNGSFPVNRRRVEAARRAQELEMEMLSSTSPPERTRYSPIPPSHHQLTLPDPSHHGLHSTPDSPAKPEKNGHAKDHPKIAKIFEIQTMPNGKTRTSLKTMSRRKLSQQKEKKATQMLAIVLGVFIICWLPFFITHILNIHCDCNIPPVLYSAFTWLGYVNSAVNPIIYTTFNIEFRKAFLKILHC
Sequence of Alpha-2B adrenergic receptor (Homo sapiens) (P18089 whole entry): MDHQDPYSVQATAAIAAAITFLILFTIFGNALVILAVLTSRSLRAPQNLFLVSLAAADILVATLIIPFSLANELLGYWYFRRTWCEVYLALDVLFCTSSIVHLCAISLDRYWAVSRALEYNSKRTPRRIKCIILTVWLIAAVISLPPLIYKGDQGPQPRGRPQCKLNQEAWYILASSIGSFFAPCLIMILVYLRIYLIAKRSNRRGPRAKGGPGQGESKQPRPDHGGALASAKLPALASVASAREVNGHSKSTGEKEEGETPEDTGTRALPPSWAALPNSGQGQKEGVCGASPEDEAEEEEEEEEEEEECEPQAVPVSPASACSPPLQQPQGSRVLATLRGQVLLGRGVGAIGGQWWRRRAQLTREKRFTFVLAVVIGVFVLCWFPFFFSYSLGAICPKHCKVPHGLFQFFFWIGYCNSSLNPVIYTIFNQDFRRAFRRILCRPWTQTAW
Sequence of Alpha-2A adrenergic receptor (Homo sapiens) (P08913 whole entry): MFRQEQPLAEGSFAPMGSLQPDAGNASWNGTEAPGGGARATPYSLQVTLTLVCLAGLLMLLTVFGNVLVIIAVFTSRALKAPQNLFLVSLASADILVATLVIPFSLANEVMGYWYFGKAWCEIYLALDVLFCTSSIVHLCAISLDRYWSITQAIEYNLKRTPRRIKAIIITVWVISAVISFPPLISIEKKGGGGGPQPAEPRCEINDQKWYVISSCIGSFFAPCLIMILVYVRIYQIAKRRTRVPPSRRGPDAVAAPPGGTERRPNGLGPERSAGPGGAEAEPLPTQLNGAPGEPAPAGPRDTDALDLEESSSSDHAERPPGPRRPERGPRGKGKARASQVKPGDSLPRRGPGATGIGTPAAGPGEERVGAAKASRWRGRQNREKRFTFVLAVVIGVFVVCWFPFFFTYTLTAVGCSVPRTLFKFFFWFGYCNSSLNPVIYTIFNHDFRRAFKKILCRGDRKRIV
Sequence of Beta-3 adrenergic receptor (Homo sapiens) (P13945 whole entry, looked up): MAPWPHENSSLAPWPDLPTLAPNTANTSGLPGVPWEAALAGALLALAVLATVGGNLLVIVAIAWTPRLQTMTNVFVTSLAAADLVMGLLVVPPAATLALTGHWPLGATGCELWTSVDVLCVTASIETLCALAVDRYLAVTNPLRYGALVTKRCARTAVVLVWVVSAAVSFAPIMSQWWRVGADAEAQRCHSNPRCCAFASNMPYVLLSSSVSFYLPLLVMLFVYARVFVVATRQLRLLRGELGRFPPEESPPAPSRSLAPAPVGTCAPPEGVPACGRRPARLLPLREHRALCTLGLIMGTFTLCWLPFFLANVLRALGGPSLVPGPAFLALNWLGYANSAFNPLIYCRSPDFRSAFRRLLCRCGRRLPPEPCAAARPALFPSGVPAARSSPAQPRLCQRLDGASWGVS
Sequence of Sodium-dependent noradrenaline transporter (Homo sapiens) (P23975 whole entry): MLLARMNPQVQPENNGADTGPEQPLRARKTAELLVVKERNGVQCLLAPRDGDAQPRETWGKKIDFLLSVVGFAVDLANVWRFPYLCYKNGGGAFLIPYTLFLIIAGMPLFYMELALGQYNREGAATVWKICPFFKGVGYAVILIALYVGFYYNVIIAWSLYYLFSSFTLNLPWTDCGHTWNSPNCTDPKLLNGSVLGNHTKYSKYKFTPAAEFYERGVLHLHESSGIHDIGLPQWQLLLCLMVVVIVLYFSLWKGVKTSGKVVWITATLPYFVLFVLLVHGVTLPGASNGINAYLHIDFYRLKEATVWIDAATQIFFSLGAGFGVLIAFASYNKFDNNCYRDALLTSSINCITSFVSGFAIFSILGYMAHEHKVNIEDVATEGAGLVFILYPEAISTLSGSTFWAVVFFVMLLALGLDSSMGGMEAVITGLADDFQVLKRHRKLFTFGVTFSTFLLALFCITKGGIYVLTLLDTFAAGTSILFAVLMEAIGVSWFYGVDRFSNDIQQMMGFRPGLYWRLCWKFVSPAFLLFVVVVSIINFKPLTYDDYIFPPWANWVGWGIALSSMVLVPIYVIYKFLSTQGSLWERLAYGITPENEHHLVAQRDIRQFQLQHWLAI
Sequence of Mu-type opioid receptor (Homo sapiens) (P35372 whole entry): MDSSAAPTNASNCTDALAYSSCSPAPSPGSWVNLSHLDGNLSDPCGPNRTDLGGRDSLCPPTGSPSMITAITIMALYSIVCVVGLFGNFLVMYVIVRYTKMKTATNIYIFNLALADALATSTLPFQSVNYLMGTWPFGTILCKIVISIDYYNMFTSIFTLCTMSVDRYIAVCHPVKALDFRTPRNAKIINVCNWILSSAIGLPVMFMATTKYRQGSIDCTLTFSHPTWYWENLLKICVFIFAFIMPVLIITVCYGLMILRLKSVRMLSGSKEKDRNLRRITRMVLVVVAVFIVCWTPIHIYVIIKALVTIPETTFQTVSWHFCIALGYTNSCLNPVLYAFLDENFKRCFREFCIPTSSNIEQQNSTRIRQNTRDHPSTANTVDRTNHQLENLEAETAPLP
Sequence of Type-2 angiotensin II receptor (Homo sapiens) (P50052 whole entry): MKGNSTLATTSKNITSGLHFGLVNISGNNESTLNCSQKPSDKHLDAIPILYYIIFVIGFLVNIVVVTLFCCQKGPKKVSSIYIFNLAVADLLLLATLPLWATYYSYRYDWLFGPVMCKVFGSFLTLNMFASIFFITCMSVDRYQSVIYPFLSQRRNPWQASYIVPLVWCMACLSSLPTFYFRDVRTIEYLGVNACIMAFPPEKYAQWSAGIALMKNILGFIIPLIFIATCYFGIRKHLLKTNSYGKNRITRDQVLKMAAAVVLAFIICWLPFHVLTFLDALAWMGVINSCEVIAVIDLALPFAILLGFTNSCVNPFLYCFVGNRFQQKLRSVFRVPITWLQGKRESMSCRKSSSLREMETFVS
Sequence of B1 bradykinin receptor (Homo sapiens) (P46663 whole entry): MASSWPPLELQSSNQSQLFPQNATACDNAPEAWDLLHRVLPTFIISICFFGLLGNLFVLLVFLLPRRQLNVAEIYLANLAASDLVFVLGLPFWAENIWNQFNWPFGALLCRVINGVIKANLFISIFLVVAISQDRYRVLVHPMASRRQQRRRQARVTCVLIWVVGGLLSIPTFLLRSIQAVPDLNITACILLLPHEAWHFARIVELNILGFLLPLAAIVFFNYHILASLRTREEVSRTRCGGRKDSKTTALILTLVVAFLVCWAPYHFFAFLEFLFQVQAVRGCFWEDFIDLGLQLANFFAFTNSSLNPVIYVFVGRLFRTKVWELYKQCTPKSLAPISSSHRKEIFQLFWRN

Take `O[C@]1(C(F)(F)F)CCCC[C@H]1Nc1ccc(F)cc1` [BAY-390]: the inhibition (in general, the relative decrease from the control value, in per cent) is -6% in assay [1]; -3.12% in assay [2]; 16% in [3]; 7% in assay [4]; 30.2% in assay [5]; -6% in [6]. In addition, the inhibition in [7] is -3%; in assay [8], 13%; in assay [9] it was -1%; in [10], 4%; in assay [11], 3%; in assay [12], 9%. For the same molecule, the inhibition in assay [14] is -4%; in [16], 19.7%; in assay [17] it was 1%; in [18] it was 5%; in [19], 21%; in assay [20], -1%. The inhibition is 6% in assay [22]; 56.5% in [25]; 2% in assay [27]; 1% in assay [28]; -8% on Histamine H2 receptor [29]. Moreover, the IC50 (as a rule, the concentration needed to halve the response being measured) was > 25 µM (not active) in assay [13]; > 30 µM (not active) in assay [15]; > 25 µM (not active) in assay [21]; 0.082 µM (active) in assay [24]; 0.068 µM (active) in assay [26]. The Ki in assay [23] (read-out: Ki) is 1.38 µM; in assay [23] (read-out: pKi (converted)) it was 1.35 µM.
`COc1cc(N[C@@H]2CCCC[C@]2(O)C(F)(F)F)ccc1F` [BAY-9897]: at Histamine H2 receptor [30], the Ki amounted to 9.78 µM. Besides, the inhibition in assay [31] is 18%.

The record behind these values is ChEMBL document CHEMBL4507328, “Data for DCP probe BAY-390” (2021).
